In patent US20240116922A1, “IMIDAZO[1,2-A]PYRIDINE DERIVATIVES AS IRAK4 INHIBITORS AND THEIR USE IN THE TREATMENT OF DISEASE” (BIOGEN MA INC., priority 2020, published 2024):
Values after ≈ are worked out from the molar mass of the structure shown.

Tests used:
IRAK4 = IRAK4 (Homo sapiens (Human), UniProt Q9NWZ3); experiment: IRAK4 MSD biochemical assay (2-hour 1 mM ATP); details: 0.1 nM IRAK4, 1 mM ATP, 2 hour at room temperature
[1] = Kinetic solubility assay (CLND), pH 6.8; format: physicochemical; details: potassium phosphate buffer pH 6.8, 2% DMSO, 24 hours at ambient temperature
[2] = biological target: Human MDR1 transfected MDCK cells (Homo sapiens (Human), UniProt P08183); experiment: MDR1-MDCK assay; details: 1 μM test concentration, 120 minutes incubation
[3] = Kpuu assay (in vivo brain-to-plasma unbound partition); details: brain (unbound) versus plasma (unbound); intravenous infusion 4 to 24 h; unbound brain/plasma ratio; read-out: Brain Kpu, u
MDR1 = MDR1 (Homo sapiens (Human), UniProt P08183); experiment: in vitro; details: MDCK-MDR1
Chain of MDR1 (P08183 whole entry): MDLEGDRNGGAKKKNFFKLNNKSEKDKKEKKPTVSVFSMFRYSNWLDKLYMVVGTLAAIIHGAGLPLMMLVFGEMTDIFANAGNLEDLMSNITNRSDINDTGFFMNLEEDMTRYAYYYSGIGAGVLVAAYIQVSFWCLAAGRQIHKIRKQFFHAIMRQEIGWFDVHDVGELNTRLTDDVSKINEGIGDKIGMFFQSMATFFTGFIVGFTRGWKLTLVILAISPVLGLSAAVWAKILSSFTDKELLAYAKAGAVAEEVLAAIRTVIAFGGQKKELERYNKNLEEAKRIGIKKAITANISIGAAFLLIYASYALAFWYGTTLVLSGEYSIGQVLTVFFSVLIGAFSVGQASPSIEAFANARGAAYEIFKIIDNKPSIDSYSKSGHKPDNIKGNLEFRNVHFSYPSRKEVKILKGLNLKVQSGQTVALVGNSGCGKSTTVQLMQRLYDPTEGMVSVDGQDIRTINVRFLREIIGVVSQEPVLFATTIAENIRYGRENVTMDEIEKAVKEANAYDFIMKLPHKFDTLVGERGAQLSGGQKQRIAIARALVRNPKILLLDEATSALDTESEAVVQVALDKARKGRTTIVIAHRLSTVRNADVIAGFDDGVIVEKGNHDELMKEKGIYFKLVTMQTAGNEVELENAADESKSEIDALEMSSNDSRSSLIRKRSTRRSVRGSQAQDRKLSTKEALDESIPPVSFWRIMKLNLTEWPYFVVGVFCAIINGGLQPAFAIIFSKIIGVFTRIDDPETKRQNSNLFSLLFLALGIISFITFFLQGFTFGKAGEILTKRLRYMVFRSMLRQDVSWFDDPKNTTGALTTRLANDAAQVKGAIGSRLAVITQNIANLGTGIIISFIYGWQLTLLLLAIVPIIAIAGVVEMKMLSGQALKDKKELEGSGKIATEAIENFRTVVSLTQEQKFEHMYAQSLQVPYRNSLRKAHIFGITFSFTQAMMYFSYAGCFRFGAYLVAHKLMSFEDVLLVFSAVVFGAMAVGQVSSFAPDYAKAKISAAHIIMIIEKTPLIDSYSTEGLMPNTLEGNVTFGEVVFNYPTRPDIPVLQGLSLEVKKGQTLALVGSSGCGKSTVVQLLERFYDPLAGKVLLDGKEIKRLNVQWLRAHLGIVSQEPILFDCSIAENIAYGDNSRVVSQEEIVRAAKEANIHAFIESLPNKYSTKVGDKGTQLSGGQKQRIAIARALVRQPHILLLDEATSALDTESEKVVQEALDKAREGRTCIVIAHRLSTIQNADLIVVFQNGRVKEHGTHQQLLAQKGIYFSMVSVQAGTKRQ

Chain of IRAK4 (Q9NWZ3 whole entry): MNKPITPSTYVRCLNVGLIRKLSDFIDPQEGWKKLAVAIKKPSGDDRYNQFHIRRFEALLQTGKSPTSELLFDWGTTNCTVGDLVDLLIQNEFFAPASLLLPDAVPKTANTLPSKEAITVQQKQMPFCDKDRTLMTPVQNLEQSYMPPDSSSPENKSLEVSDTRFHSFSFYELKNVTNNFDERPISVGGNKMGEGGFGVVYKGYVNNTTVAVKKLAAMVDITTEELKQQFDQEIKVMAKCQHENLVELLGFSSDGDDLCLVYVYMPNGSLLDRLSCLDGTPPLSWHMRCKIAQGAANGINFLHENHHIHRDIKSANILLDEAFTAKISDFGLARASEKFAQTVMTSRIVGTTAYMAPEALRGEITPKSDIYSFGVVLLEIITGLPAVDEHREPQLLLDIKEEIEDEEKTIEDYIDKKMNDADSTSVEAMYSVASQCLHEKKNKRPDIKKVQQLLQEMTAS
Chain of Human MDR1 transfected MDCK cells (P08183 whole entry, the tested form may be a part): as the sequence (P08183 whole entry) above

solubility kinetic at 24 h ([1]; aqueous buffer, kinetic from dmso stock)	Kpuu (unbound brain-to-plasma partition coefficient) [3]	efflux ratio at 120 min, 1 μM (MDR1)	SMILES	IC50 (IRAK4)	pH 6.8 Solubility (ug/mL) [1]	MDR1-MDCK Efflux Ratio [2]
–	–	–	O=C(Nc1cccn(C2CC2)c1=O)c1cn2cc(C34COC(C3)C4)nc2nc1OC1CCC1 [Example 36, 2-(2-oxabicyclo[2.1.1]hexan-4-yl)-7-cyclobutoxy-N-(1-cyclopropyl-2-oxo-1,2-dihydropyridin-3-yl)imidazo[1,2-a]pyrimidine-6-carboxamide]	1.7 nM	20.8 ug/mL	6.4
75.9 µg/mL (≈ 158 µM)	0.49	5.4	CC(C)Oc1cc2nc([C@]34CC[C@](CF)(C3)OC4)cn2cc1C(=O)Nc1cccn(C2CC2)c1=O (single isomer, unassigned) [Example 8]	0.3 nM	–	–
